US7572777B2, “Florfenicol prodrug having improved water solubility” (Schering-Plough Animal Health Corp., priority 2003, dated 2009)
Blank lines part the entries; values can stand above or below the compound they belong to.

How the values were obtained:
[1] = Stability of the phosphate prodrug in aqueous solutions; format: physicochemical; conditions: for % Compound B (cyclic phosphate formed) / % Compound C (free florfenicol formed) / % Compound A: 40° C., 30 days under nitrogen; for % Compound A: initial purity 98.3%
From the text: Although relatively stable in aqueous solutions, over prolonged periods of time the phosphate ester of florfenicol (Formula I) undergoes slow degradation resulting in the release of free florfenicol as well as the formation of cyclic phosphate diester. The formation of the cyclic diester occurs through the phosphate anion displacement of fluorine and requires participation of the phosphate di-anion, which is much more nucleophilic than the corresponding mono-anion. Therefore, the rate of formation of the cyclic diester is largely dependent on the pH of the solution or more generally, on the degree of the phosphate ionization. […]. However, even such small changes of pH result in noticeable differences of the amount of the cyclic phosphate diester formed.

[2] = Conversion of florfenicol phosphate to florfenicol in cattle (plasma florfenicol after iv dosing); format: in vivo; conditions: calves, approximately 10 mg/kg, HPLC-MS/MS (FIG. 2)
From the text: […]. Each symbol denotes the data from a different calf.

[3] = Conversion of florfenicol phosphate to florfenicol in dogs (plasma florfenicol after iv dosing); format: in vivo; conditions: approximately 11 mg/kg, HPLC-MS/MS (FIG. 3)
Procedure: . The plot depicts florfenicol concentrations in the plasma of three dogs following intravenous administration of the florfenicol phosphate ester prodrug at a dose of approximately 11.1 mg/kg of body weight, which equates to a florfenicol equivalent dose of 8.3 mg/kg. Each symbol denotes the data from a different dog.

[4] = physchem; format: physicochemical
Procedure: Successive aliquots of solid phosphate ester prodrug (sodium salt) were added to water with agitation. Addition was continued until mixing became difficult due to high viscosity, at which point all of the prodrug remained in solution.

[5] = Conversion of florfenicol phosphate to florfenicol in swine (plasma florfenicol after iv dosing); format: in vivo; conditions: pigs, approximately 6.7 mg/kg (FIG. 4)
Procedure: FIG. 4 is a graphic presentation of florfenicol concentrations in the plasma of pigs following intravenous administration of florfenicol phosphate ester. The plot depicts florfenicol concentrations detected in the plasma of three pigs following intravenous administration of the florfenicol phosphate ester prodrug at a dose of approximately 6.7 mg/kg of body weight, which equates to a florfenicol equivalent dose of 5 mg/kg. Each symbol denotes the data from a different pig.
[…]. Plasma samples were collected after drug administration and analyzed for concentrations of florfenicol. […].

[6] = Conversion of prodrug to florfenicol in bovine serum; conditions: 37° C., after 4 hours (FIG. 1)
[7] = Conversion of prodrug to florfenicol in rat serum; conditions: 37° C., after 4 hours (FIG. 1)
[8] = pH 4.48 adjusted with ethanolamine, 300 mg/mL active florfenicol
[9] = pH 4.54, aqueous solution 300 mg/mL active florfenicol
[10] = pH 4.95, aqueous solution 300 mg/mL active florfenicol
[11] = pH 5.03 adjusted with ethanolamine, 300 mg/mL active florfenicol
[12] = pH 5.51 adjusted with ethanolamine, 300 mg/mL active florfenicol
[13] = pH 5.53, aqueous solution 300 mg/mL active florfenicol
[14] = listed as Florfenicol phosphate

stability in aqueous solution versus pH ([1]; below pH 4 or at neutral or higher pH ranges): less stable
stability of aqueous solutions of the prodrug ([1]; close to one equivalent of sodium hydroxide or ethanolamine added to concentrated aqueous solution, approximately pH 4.5 to pH 5.5): Satisfactory stability
effect of ionic strength on aqueous stability ([1]; increased ionic strength): reduces the aqueous stability
% Compound B (cyclic phosphate formed) [1, 8]: 0.18%
% Compound C (free florfenicol formed) [1, 8]: 0.92%
% Compound A [1, 8]: 93.43%
% Compound B (cyclic phosphate formed) [1, 9]: 0.17%
% Compound C (free florfenicol formed) [1, 9]: 1.02%
% Compound A [1, 9]: 94.40%
% Compound B (cyclic phosphate formed) [1, 10]: 0.37%
% Compound C (free florfenicol formed) [1, 10]: 1.01%
% Compound A [1, 10]: 93.38%
% Compound B (cyclic phosphate formed) [1, 11]: 0.58%
% Compound C (free florfenicol formed) [1, 11]: 0.86%
% Compound A [1, 11]: 95.83%
% Compound B (cyclic phosphate formed) [1, 12]: 1.25%
% Compound C (free florfenicol formed) [1, 12]: 0.70%
% Compound A [1, 12]: 93.83%
% Compound B (cyclic phosphate formed) [1, 13]: 1.41%
% Compound C (free florfenicol formed) [1, 13]: 0.93%
% Compound A [1, 13]: 93.06%
plasma florfenicol concentrations following treatment [2, 14]: increased rapidly
plasma florfenicol concentrations following treatment [3, 14]: increased rapidly
solubility ([4]; water, thermodynamic from solid): > 600 mg/mL
plasma florfenicol concentrations following treatment [5, 14]: increased rapidly
Compound: CS(=O)(=O)c1ccc([C@@H](OP(=O)(O)O)[C@@H](CF)NC(=O)C(Cl)Cl)cc1 [florfenicol phosphate ester]
plasma florfenicol concentrations following treatment [2]: substantial concentrations of florfenicol were detected
plasma florfenicol concentrations following treatment [3]: substantial concentrations of florfenicol were detected
plasma florfenicol concentrations following treatment [5]: substantial concentrations of florfenicol were detected

Compound: CS(=O)(=O)c1ccc([C@@H](OC(=O)CCCC(=O)O)[C@@H](CF)NC(=O)C(Cl)Cl)cc1 [glutarate ester of florfenicol]
conversion (hydrolysis) to florfenicol [6]: approximately 6%
conversion (hydrolysis) to florfenicol [7]: about 3%

conversion of the prodrug into cyclic diester ([1]; heating a solution of the bis sodium salt): almost quantitative conversion
aqueous solubility (original concentration by HPLC) [4]: greater than 700 mg/mL
Compound: CS(=O)(=O)c1ccc([C@@H](OP(=O)([O-])[O-])[C@@H](CF)NC(=O)C(Cl)Cl)cc1.[Na+].[Na+] [sodium salt of florfenicol phosphate, [1R, 2S-1-(4-Methanesulfonylphenyl)-2-(2,2-dichloroacetylamino)-3-fluoropropyl]phosphate disodium salt]
